In patent publication US11464750B2, “Anticancer agent and use thereof” (priority 2017, dated 2022):

What was measured:
Format in all cases: cell-based, human
p53 protein = assay: Western blotting, p53 protein, Panc-1 cells; conditions: 3 μM, 12 hours until 48 hours after treatment
Procedure: (§1) Specifically, JeKo-1 cells were cultured for 0 (control), 12, 24, and 48 hours in the presence of 0.5 μM of 3EZ,20Ac-ingenol. In addition, Panc-1 cells were cultured for 0 (control), 12, 24, and 48 hours in the presence of 3 μM of 3EZ,20Ac-ingenol.
(§2) Subsequently, ATR protein, p53 protein, and phosphorylated p53 (hereinafter also referred to as “p-p53”) protein in the respective cells were respectively detected using an anti-ATR antibody (Cell Signaling Technology), an anti-p53 antibody (Santa Cruz), and an anti-p-p53 antibody (Cell Signaling Technology). Furthermore, as a loading control, actin protein was detected using an anti-actin antibody (Sigma).

Akt protein [1] = assay: Western blotting, total amount of Akt, JeKo-1 cells; conditions: 0.5 μM, entire cell fraction
Procedure: (§3) Specifically, first, JeKo-1 cells were cultured for 0 (control), 12, 24, and 48 hours in the presence of 0.5 μM of 3EZ,20Ac-ingenol. In addition, Panc-1 cells were cultured for 0 (control), 12, 24, and 48 hours in the presence of 3 μM of 3EZ,20Ac-ingenol.
(§4) Subsequently, by Western blotting using an anti-Akt antibody (Cell Signaling Technology) and an anti-p-Akt (Ser^473) antibody (Cell Signaling Technology), abundances of total amounts of Akt protein and p-Akt in the entire cell fractions, nuclear fractions, and cytoplasm fractions of the respective cells were analyzed. Furthermore, as a loading control, actin protein was detected using an anti-actin antibody (Sigma).

Akt protein [2] = assay: Western blotting, total amount of Akt, Panc-1 cells; conditions: 3 μM
Procedure: as §3, §4

PTEN = assay: Western blotting, PTEN, BALL-1 cells; conditions: 0.5 μM
Procedure: (§5) The effect of 3EZ,20Ac-ingenol treatment on PTEN, p-PTEN, and p-Akt of BALL-1 cells was examined. First, BALL-1 cells were cultured for 3, 6, 12, 24, and 48 hours in the presence of 3EZ,20Ac-ingenol at a final concentration of 0.5 μM, and by Western blotting using an anti-PTEN antibody (Santa Cruz), an anti-p-PTEN (Ser^380/Thr^382/383) antibody (Santa Cruz), and an anti-p-Akt (Ser^473) antibody (Cell Signaling Technology), abundances of PTEN, p-PTEN, and p-Akt in the entire cell fraction were analyzed. In addition, cells cultured in the absence of 3EZ,20Ac-ingenol were used as controls.
Subsequently, siRNA against PTEN (“ON-TARGET Plus Human PTEN (5728) siRNA-SMARTpool,” GE Dharmacon) was introduced into BALL-1 cells at a final concentration of 50 nM and incubated for 48 hours. Subsequently, a cell medium was replaced with a new medium and cultured for 12, 24, and 48 hours in the presence or absence of 3EZ,20Ac-ingenol at a final concentration of 0.5 μM, and by Western blotting using an anti-PTEN antibody (Santa Cruz) and an anti-p-Akt (Ser^473) antibody (Cell Signaling Technology), abundances of PTEN protein and p-Akt were analyzed.

[3] = tested on: p-PTEN (Ser^380/Thr^382/383); assay: Western blotting, p-PTEN, BALL-1 cells; conditions: 0.5 μM, 3 to 48 hours, entire cell fraction
Procedure: as §5

cyclin D1 = assay: Western blotting, cyclin D1, BALL-1 cells; conditions: 0.5 μM
Procedure: Specifically, BALL-1 cells were cultured for 12, 24, and 48 hours in the presence of 3EZ,20Ac-ingenol at a final concentration of 0.5 μM, and abundances of cyclin D1 in the nuclear fraction and the cytoplasm fraction were analyzed by Western blotting. In addition, cells cultured in the absence of 3EZ,20Ac-ingenol were used as controls.
Whether transfer of cyclin D1 from the nucleus to the cytoplasm is ATR-dependent and PTEN-dependent was examined using siRNA against ATR and siRNA against PTEN. First, siRNA against ATR (“ON-TARGET Plus Human ATR (545) siRNA-SMARTpool,” GE Dharmacon), siRNA against PTEN (“ON-TARGET Plus Human PTEN (5728) siRNA-SMARTpool,” GE Dharmacon), and control siRNA (“ON-TARGET Plus Nontargeting pool,” GE Dharmacon) were respectively introduced into BALL-1 cells at a final concentration of 50 nM, and incubated for 48 hours.
Subsequently, a cell medium was replaced with a new medium containing 3EZ,20Ac-ingenol at a final concentration of 0.5 μM, and culturing was performed for 24 and 48 hours. Subsequently, abundances of cyclin D1 in the nuclear fraction and the cytoplasm fraction were analyzed by Western blotting using an anti-cyclin-D1 antibody (Santa Cruz).

PTEN protein = assay: Western blotting, PTEN protein, JeKo-1 cells; conditions: 0.5 μM
Procedure: as §3
Subsequently, abundances of PTEN protein in entire cell fractions, nuclear fractions, and cytoplasm fractions of the respective cells were analyzed by Western blotting using an anti-PTEN antibody (Santa Cruz). Furthermore, as a loading control, actin protein was detected using an anti-actin antibody (Sigma).

[4] = tested on: phosphorylated p53 (p-p53) protein; assay: Western blotting, phosphorylated p53, Panc-1 cells; conditions: 3 μM
Procedure: as §1, §2

p21 protein = assay: Western blotting, p21 protein, Panc-1 cells; conditions: 3 μM
Procedure: Specifically, JeKo-1 cells were cultured for 0 (control), 12, 24 and 48 hours in the presence of 0.5 μM of 3EZ,20Ac-ingenol. In addition, Panc-1 cells were cultured for 0 (control), 12, 24, and 48 hours in the presence of 3 μM of 3EZ,20Ac-ingenol.
Subsequently, phosphorylation of H2AX in the respective cells was detected using an anti-phosphorylated-H2AX antibody (Millipore). In addition, p21 protein was detected using an anti-p21 antibody (Cell Signaling Technology). Furthermore, as a loading control, actin protein was detected using an anti-actin antibody (Sigma).

Structure (SMILES): CCCCC/C=C\C=C\C(=O)O[C@H]1C(C)=C[C@]23C(=O)[C@@H](C=C(COC(C)=O)[C@@H](O)[C@]12O)[C@H]1[C@@H](C[C@H]3C)C1(C)C [3EZ,20Ac-ingenol, 3-O-(2′E,4′Z-decadienoyl)-20-O-acetylingenol]
- expression level of p53 protein (p53 protein): an increase in expression level of p53 protein was recognized
- abundance of a total amount of Akt (Akt protein [1]): almost no change was observed
- abundance of total amount of Akt (Akt protein [2]; entire cell fraction, 12 hours and 24 hours): a temporary increase in abundances of both p-Akt and total amount of Akt was recognized
- abundance of total amount of Akt (Akt protein [2]; entire cell fraction, 48 hours): a decrease was observed again
- abundance of total amount of Akt (Akt protein [2]; nuclear fraction and cytoplasm fraction, 12 to 24 hours): an increase in abundance of both p-Akt and total amount of Akt was recognized
- abundance of total amount of Akt (Akt protein [2]; nuclear fraction and cytoplasm fraction, 48 hours): a decrease was observed 48 hours after the treatment
- abundance of PTEN (PTEN; 3 to 48 hours, entire cell fraction): an increase in abundance of PTEN
- expression level of PTEN (PTEN; cells with siRNA against PTEN introduced, 12 hours, further increased 24 and 48 hours): an increase in expression level of PTEN was observed
- abundance of p-PTEN [3]: an abundance of p-PTEN increased
- abundance of cyclin D1 (cyclin D1; cytoplasm fraction, 12 hours and 24 hours): increased
- abundance of cyclin D1 (cyclin D1; cytoplasm fraction, after 48 hours): decreased again
- abundance of cyclin D1 (cyclin D1; nuclear fraction, 24 hours): a decrease in abundance of cyclin D1 was observed
- abundance of cyclin D1 (cyclin D1; siRNA against ATR introduced, cytoplasm fraction, 24 hours): abundances of cyclin D1 in the cytoplasm fractions increased
- abundance of cyclin D1 (cyclin D1; siRNA against ATR introduced, cytoplasm fraction, 48 hours): abundances of cyclin D1 in the cytoplasm fractions decreased again
- abundance of cyclin D1 (cyclin D1; siRNA against ATR introduced, nuclear fraction, 24 and 48 hours): an abundance of cyclin D1 was large
- abundance of cyclin D1 (cyclin D1; siRNA against PTEN introduced, cytoplasm fraction, 24 hours): abundances of cyclin D1 in the cytoplasm fractions increased
- abundance of cyclin D1 (cyclin D1; siRNA against PTEN introduced, cytoplasm fraction, 48 hours): abundances of cyclin D1 in the cytoplasm fractions decreased again
- abundance of cyclin D1 (cyclin D1; siRNA against PTEN introduced, nuclear fraction, 24 and 48 hours): an abundance of cyclin D1 was large
- abundance of PTEN protein (PTEN protein; cytoplasm fraction, 12 hours to 24 hours): an increase in abundance of PTEN protein in the cytoplasm fraction was observed
- abundance of PTEN protein (PTEN protein; cytoplasm fraction, 48 hours): a decrease in abundance of PTEN protein was observed
- abundance of PTEN protein (PTEN protein; entire cell fraction, 12 hours until 48 hours): an abundance of PTEN protein increased
- abundance of PTEN protein (PTEN protein; nuclear fraction, 12 hours to 24 hours): an increase in abundance of PTEN protein in the nuclear fraction was observed
- phosphorylation of p53 ([4]; 12 hours after treatment, entire cells): phosphorylation of p53 was observed
- amount of phosphorylated p53 protein ([4]; nuclear fraction and cytoplasm fraction): the amount of phosphorylated p53 protein increased
- expression of p21 protein (p21 protein; 12 hours after treatment): induction of a high expression level of p21 protein was observed
- expression of p21 protein (p21 protein; 48 hours after treatment): a rapid decrease in p21 protein was recognized
